The record followed here is ChEMBL document CHEMBL1149850, “Cytotoxic hydrolyzable tannins from Balanophora japonica” (J Nat Prod, 2008).

pIC50: −log10 of the molar value.

The test system of the assay is HepG2. The assay is described as follows: Cytotoxicity against human HepG2 cells. In kind it is functional, cell-based.
In the case of `O=C(/C=C/c1ccc(O)c(O)c1)O[C@@H]1O[C@H](COC(=O)[C@H]2CC(=O)c3oc(=O)c4cc(O)c(O)c(O)c4c32)[C@@H](O)[C@H](O)[C@H]1O` [BALANOPHOTANNIN D], the pIC50 (usually the negative decadic logarithm of the IC50, by convention in mol/L) is 4.76.

For the compound `O=C(O[C@@H]1O[C@H](COC(=O)[C@H]2CC(=O)c3oc(=O)c4cc(O)c(O)c(O)c4c32)[C@@H](O)[C@H](OC(=O)c2cc(O)c(O)c(O)c2)[C@H]1O)c1cc(O)c(O)c(O)c1` [BALANOPHOTANNIN E], the pIC50 was 5.37.

`O=C(O)C[C@@H]1C(=O)O[C@H]2[C@H](O)[C@@H](O)[C@H](OC(=O)/C=C/c3ccc(O)c(O)c3)O[C@@H]2COC(=O)c2cc(O)c(O)c3c2[C@H]1C(=O)O3` [BALANOPHOTANNIN F] showed a pIC50 of 4.31.

As for `O=C(O)C[C@@]12Oc3c(O)c(O)cc(C(=O)OC[C@H]4O[C@@H](OC(=O)/C=C/c5ccc(O)c(O)c5)[C@H](O)[C@@H](O)[C@@H]4O)c3[C@@H]1[C@H](C(=O)O)OC2=O` [BALANOPHOTANNIN G], the pIC50 is 4.74.

For the compound `O=c1[nH]cc(F)c(=O)[nH]1` [FLUOROURACIL], the pIC50 was 4.73.
